Test results from PubChem BioAssay AID248 (DTP/NCI, 2004).
Where “and” joins values, the source holds several entries; their conditions need not be identical. Identical values can stand only once. Toxic doses and inconclusive results are not listed.

System: L1210 leukemia ip in BDF1 mice, survival T/C
Experiment: NCI In Vivo Anticancer Drug Screen. Data for tumor model L1210 Leukemia (intraperitoneal) in B6D2F1 (BDF1) mice
Details: endpoint: mean survival time, higher = longer survival
Outline: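 Value reflects the ratio of survival in compound-treated mice to survival in vehicle-treated controls, with both groups carrying the same transplanted tumor.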

[1] = dose: 100.0 mg/kg/injection, schedule: Q04DX003 (ip), vehicle: saline
[2] = dose: 200.0 mg/kg/injection, schedule: Q04DX003 (ip), vehicle: saline
[3] = dose: 400.0 mg/kg/injection, schedule: Q04DX003 (ip), vehicle: saline
[4] = dose: 100.0 mg/kg/injection, schedule: Q04DX003 (ip), vehicle: Klucel (hydroxypropylcellulose) (HPC)
[5] = dose: 200.0 mg/kg/injection, schedule: Q04DX003 (ip), vehicle: Klucel (hydroxypropylcellulose) (HPC)
[6] = dose: 400.0 mg/kg/injection, schedule: Q04DX003 (ip), vehicle: Klucel (hydroxypropylcellulose) (HPC)
[7] = dose: 100.0 mg/kg/injection, schedule: Q01DX009 (ip), vehicle: saline with Tween-80
[8] = dose: 100.0 mg/kg/injection, schedule: Q04DX003 (ip), vehicle: saline with Tween-80
[9] = dose: 200.0 mg/kg/injection, schedule: Q01DX009 (ip), vehicle: saline with Tween-80
[10] = dose: 200.0 mg/kg/injection, schedule: Q04DX003 (ip), vehicle: saline with Tween-80
[11] = dose: 400.0 mg/kg/injection, schedule: Q04DX003 (ip), vehicle: saline with Tween-80
[12] = dose: 50.0 mg/kg/injection, schedule: Q01DX009 (ip), vehicle: saline with Tween-80
[13] = dose: 100.0 mg/kg/injection, schedule: Q04DX002 (ip), vehicle: saline with Tween-80
[14] = dose: 200.0 mg/kg/injection, schedule: Q04DX002 (ip), vehicle: saline with Tween-80
[15] = dose: 100.0 mg/kg/injection, schedule: Q01DX001 (ip), vehicle: saline
[16] = dose: 100.0 mg/kg/injection, schedule: Q01DX009 (ip), vehicle: Klucel (hydroxypropylcellulose) (HPC)
[17] = dose: 200.0 mg/kg/injection, schedule: Q01DX009 (ip), vehicle: Klucel (hydroxypropylcellulose) (HPC)
[18] = dose: 400.0 mg/kg/injection, schedule: Q01DX009 (ip), vehicle: Klucel (hydroxypropylcellulose) (HPC)

Cc1cccc2c(Nc3ccc(NS(C)(=O)=O)cc3)c3ccccc3nc12
T/C (dose: 2.5 mg/kg/injection, schedule: Q01DX009 (ip), vehicle: Klucel (hydroxypropylcellulose) (HPC)): 115 % of control
T/C (dose: 5.0 mg/kg/injection, schedule: Q01DX009 (ip), vehicle: Klucel (hydroxypropylcellulose) (HPC)): 115 % of control
T/C (dose: 10.0 mg/kg/injection, schedule: Q01DX009 (ip), vehicle: Klucel (hydroxypropylcellulose) (HPC)): 117 % of control
T/C (dose: 10.0 mg/kg/injection, schedule: Q01DX009 (ip), vehicle: saline with Tween-80): 120 % of control
T/C (dose: 10.0 mg/kg/injection, schedule: Q01DX009 (sc), vehicle: saline): 112 % of control
T/C (dose: 20.0 mg/kg/injection, schedule: Q01DX001 (ip), vehicle: saline with Tween-80): 121 % of control
T/C (dose: 20.0 mg/kg/injection, schedule: Q01DX009 (ip), vehicle: Klucel (hydroxypropylcellulose) (HPC)): 224 % of control
T/C (dose: 20.0 mg/kg/injection, schedule: Q01DX009 (ip), vehicle: saline with Tween-80): 166 % of control
T/C (dose: 20.0 mg/kg/injection, schedule: Q01DX009 (sc), vehicle: saline): 110 % of control
T/C (dose: 40.0 mg/kg/injection, schedule: Q01DX001 (ip), vehicle: saline with Tween-80): 117 % of control
T/C (dose: 40.0 mg/kg/injection, schedule: Q01DX009 (ip), vehicle: Klucel (hydroxypropylcellulose) (HPC)): 103 % of control
T/C (dose: 40.0 mg/kg/injection, schedule: Q01DX009 (ip), vehicle: saline with Tween-80): 178 % of control
T/C (dose: 40.0 mg/kg/injection, schedule: Q01DX009 (sc), vehicle: saline): 113 % of control
T/C (dose: 40.0 mg/kg/injection, schedule: Q04DX003 (ip), vehicle: saline with Tween-80): 159 % of control
T/C (dose: 80.0 mg/kg/injection, schedule: Q01DX009 (ip), vehicle: saline with Tween-80): 116 % of control
T/C (dose: 80.0 mg/kg/injection, schedule: Q04DX003 (ip), vehicle: Klucel (hydroxypropylcellulose) (HPC)): 164 % of control
T/C (dose: 80.0 mg/kg/injection, schedule: Q04DX003 (ip), vehicle: saline with Tween-80): 151 % of control
T/C [1]: 123 % of control
T/C (dose: 160.0 mg/kg/injection, schedule: Q04DX003 (ip), vehicle: Klucel (hydroxypropylcellulose) (HPC)): 206 % of control
T/C (dose: 160.0 mg/kg/injection, schedule: Q04DX003 (ip), vehicle: saline with Tween-80): 168 % of control
T/C [2]: 167 % of control
T/C [3]: 94 % of control

CN(C)Cc1cccc(-c2ccccc2)c1O
T/C (dose: 100.0 mg/kg/injection, schedule: Q01DX009 (ip), vehicle: saline): 107 % of control
T/C [4]: 95 % of control
T/C [1]: 100 % of control
T/C (dose: 200.0 mg/kg/injection, schedule: Q01DX009 (ip), vehicle: saline): 107 % of control
T/C [5]: 98 % of control
T/C [2]: 100 % of control
T/C (dose: 400.0 mg/kg/injection, schedule: Q01DX009 (ip), vehicle: saline): 103 % of control
T/C [6]: 98 % of control
T/C [3]: 100 % of control

CC(=O)Nc1ccc2c(c1)Cc1c(F)ccc(F)c1-2
T/C (dose: 50.0 mg/kg/injection, schedule: Q01DX001 (ip), vehicle: carboxymethylcellulose (CMC)): 98 % of control
T/C (dose: 100.0 mg/kg/injection, schedule: Q01DX001 (ip), vehicle: carboxymethylcellulose (CMC)): 91 % of control
T/C (dose: 200.0 mg/kg/injection, schedule: Q01DX001 (ip), vehicle: carboxymethylcellulose (CMC)): 91 % of control
T/C (dose: 400.0 mg/kg/injection, schedule: Q01DX001 (ip), vehicle: carboxymethylcellulose (CMC)): 98 % of control

CCOC(=O)c1ccc(NC(=S)Nc2ccc(C(=O)OCC)cc2)cc1
T/C [7]: 95 % of control
T/C [8]: 89 % of control
T/C [9]: 93 % of control
T/C [10]: 87 % of control
T/C (dose: 400.0 mg/kg/injection, schedule: Q01DX009 (ip), vehicle: saline with Tween-80): 95 % of control
T/C [11]: 94 % of control

CCOC(=O)C(C)CC(=O)c1ccccc1 (configuration not stated)
T/C [12]: 106 % of control
T/C [7]: 107 % of control
T/C [13]: 95 % of control
T/C [14]: 95 % of control

O=C(CCCCCl)Nc1cccc2c1C(=O)c1c(c(O)c3ccccc3c1O)C2=O
T/C [8]: 98 % of control
T/C [10]: 90 % of control
T/C [11]: 90 % of control

COP1(=O)CC=C(C)C1 (configuration not stated)
T/C [15]: 98 % of control
T/C (dose: 200.0 mg/kg/injection, schedule: Q01DX001 (ip), vehicle: saline): 98 % of control
T/C (dose: 400.0 mg/kg/injection, schedule: Q01DX001 (ip), vehicle: saline): 106 % of control

CS(=O)(=O)Oc1cccc(C2CS(=O)(=O)c3ccccc3N2)c1 (configuration not stated)
T/C (dose: 100.0 mg/kg/injection, schedule: Q01DX001 (ip), vehicle: Klucel (hydroxypropylcellulose) (HPC)): 101 % of control
T/C [16]: 104 % of control
T/C [4]: 97 % of control
T/C (dose: 200.0 mg/kg/injection, schedule: Q01DX001 (ip), vehicle: Klucel (hydroxypropylcellulose) (HPC)): 106 % of control
T/C [17]: 101 % of control
T/C [5]: 97 % of control
T/C (dose: 400.0 mg/kg/injection, schedule: Q01DX001 (ip), vehicle: Klucel (hydroxypropylcellulose) (HPC)): 103 % of control
T/C [18]: 101 % of control
T/C [6]: 94 % of control

Brc1c2ccccc2cc2ccccc12
T/C (dose: 100.0 mg/kg/injection, schedule: Q04DX002 (ip), vehicle: gum acacia): 101 % of control
T/C (dose: 200.0 mg/kg/injection, schedule: Q04DX002 (ip), vehicle: gum acacia): 93 % of control
T/C (dose: 400.0 mg/kg/injection, schedule: Q04DX002 (ip), vehicle: gum acacia): 96 % of control

CCOC(=O)N/N=C(/C)c1ccc(C)cc1
T/C [12]: 95 % of control and 121 % of control
T/C (dose: 100.0 mg/kg/injection, schedule: Q01DX001 (ip), vehicle: saline with Tween-80): 103 % of control
T/C [7]: 105 % of control and 89 % of control
T/C [13]: 95 % of control and 104 % of control
T/C [8]: 97 % of control
T/C (dose: 200.0 mg/kg/injection, schedule: Q01DX001 (ip), vehicle: saline with Tween-80): 101 % of control
T/C [9]: 101 % of control and 110 % of control
T/C [14]: 101 % of control and 110 % of control
T/C [10]: 97 % of control
T/C (dose: 400.0 mg/kg/injection, schedule: Q01DX001 (ip), vehicle: saline with Tween-80): 102 % of control
T/C [11]: 110 % of control

ClC1CC2CCC1(Cl)C2 (configuration not stated)
T/C [16]: 97 % of control
T/C [4]: 96 % of control
T/C [17]: 92 % of control
T/C [5]: 100 % of control
T/C [18]: 93 % of control
T/C [6]: 96 % of control

O=C(Nc1ccccc1F)C(c1ccccc1)c1ccccc1
T/C [16]: 103 % of control
T/C [4]: 96 % of control
T/C [17]: 93 % of control
T/C [5]: 95 % of control
T/C [18]: 94 % of control
T/C [6]: 95 % of control

Cc1cc(N=Cc2ccc(Cl)cc2)c(N=Cc2ccc(Cl)cc2)cc1C
T/C (dose: 100.0 mg/kg/injection, schedule: Q01DX005 (ip), vehicle: Klucel (hydroxypropylcellulose) (HPC)): 99 % of control
T/C [16]: 108 % of control
T/C (dose: 100.0 mg/kg/injection, schedule: Q04DX002 (ip), vehicle: Klucel (hydroxypropylcellulose) (HPC)): 95 % of control
T/C (dose: 200.0 mg/kg/injection, schedule: Q01DX005 (ip), vehicle: Klucel (hydroxypropylcellulose) (HPC)): 96 % of control
T/C [17]: 115 % of control
T/C (dose: 200.0 mg/kg/injection, schedule: Q04DX002 (ip), vehicle: Klucel (hydroxypropylcellulose) (HPC)): 95 % of control
T/C (dose: 400.0 mg/kg/injection, schedule: Q01DX005 (ip), vehicle: Klucel (hydroxypropylcellulose) (HPC)): 92 % of control
T/C [18]: 97 % of control
T/C (dose: 400.0 mg/kg/injection, schedule: Q04DX002 (ip), vehicle: Klucel (hydroxypropylcellulose) (HPC)): 95 % of control

NC(=S)c1[nH]cnc1N
T/C (dose: 27.0 mg/kg/injection, schedule: Q01DX015 (ip), vehicle: saline): 95 % of control
T/C (dose: 40.0 mg/kg/injection, schedule: Q01DX015 (ip), vehicle: saline): 93 % of control
T/C (dose: 60.0 mg/kg/injection, schedule: Q01DX015 (ip), vehicle: saline): 101 % of control
T/C (dose: 100.0 mg/kg/injection, schedule: Q01DX001 (ip), vehicle: other): 98 % of control
T/C [15]: 110 % of control
T/C (dose: 200.0 mg/kg/injection, schedule: Q01DX001 (ip), vehicle: other): 95 % of control
T/C (dose: 400.0 mg/kg/injection, schedule: Q01DX001 (ip), vehicle: other): 103 % of control
